Laboratory results as given in patent US20030138508A1 (priority 2001, published 2003).

Key:
Male ICR mice [1] = conditions: mouse, in vivo, iv
Male ICR mice [2] = conditions: mouse, in vivo, iv, 0.7 mg/kg
Male ICR mice [3] = conditions: mouse, in vivo, iv; remark: listed apart in the source
[4] = format: physicochemical

Structure (SMILES): CCCCCc1cc(O)c2c(c1)OC(C)(C)[C@@H]1CCC(C)=C[C@@H]21 [THC, Δ^9-Tetrahydrocannabinol]
- LD50 [95% CL's] (Male ICR mice [1]): 75.4 [66.5-85.5] mg/kg
- TI (Male ICR mice [2]): 47
- inactive dose (Male ICR mice [3]): 0.7 mg/kg
- recovery from aerosol [4]: ~87.5%
